“Also recorded” adds a separate entry of the source. Read-outs that look alike come from different tables or passages of the source. Non-standard residues stand in square brackets, D forms with d. Residues, ends and D or L forms follow the SMILES beside them. pGlu = O=C1CC[C@@H](C(=O)O)N1
Tests used:
[1] = target: GnRH binding sites (normal rat liver); test: GnRH in vitro binding to normal rat liver membrane preparation; settings: 95% confidence interval in parentheses, read-out: Receptor Binding Activity (Kd, nM) Normal Rat Liver
Procedure: (§1) Cells were grown to confluence as previously described and harvested from the flasks by using a rubber policeman. The cells were washed in normal assay buffer (([…] Tris[hydroxymethyl] aminomethane[Tris]-HCl), containing 1 mM dithiothreitol and 0.5% BSA [fraction-V] (pH 7.6)) and precipitated by centrifugation at 500g for 5 minutes at 4° C.
(§2) The cleaned cells were homogenized in 50 ml of freshly prepared ice cold 25 mM sucrose in assay buffer containing 1 mM Phenylmethanesulphonyl fluoride and 5 mM Ethylenediaminetetraacetic acid, using a glass TEFLON (polytetra-fluoroethylene) homogenizer, followed by centrifugation at 100 ×g for 5 minutes (4° C.). The supernatant was further centrifuged at 17,000×g for 30 minutes at 4° C., and the pellet (crude membrane preparation) washed briefly and resuspended in the assay buffer (approximately 40-50 μg membrane protein or approximately 1 x 10^6 cell equivalent per 100 μl).
(§3) A similar protocol was used to prepare the membrane from fresh rat and frozen human postmortem liver. In all experiments the final membrane preparation was used in the radioreceptor assay within 45 minutes.
(§4) For protein determination, aliquots of crude membrane preparations were washed twice with double distilled water by centrifugation (25,000 ×g) and assayed for protein content, using BSA as the standard. The binding assay was carried out at 4° C.
(§5) The displacement curves were fitted for both single and two classes of binding sites by computer calculated lines, as described.

[2] = target: GnRH receptor (HepG2 membrane preparation); test: GnRH in vitro binding to HepG2 membrane preparation (radioreceptor assay); parameters: species or system human; settings: for Kd: 95% confidence interval in parentheses; for Displacement / competitive inhibition of labeled [D-Lys6]-GnRH binding to HepG2 membrane preparation: unlabeled non-GnRH peptides, FIG. 2B
Procedure: as §1, §2, §4, §5
(§6) The potency of various GnRH-related peptides in terms of binding (equilibrium dissociation constant; kd) and growth suppression activity in the human hepatocarcinoma derived cell line HepG2 was studied. […] Data analysis was performed as described.
(§7) Homologous displacement of GnRH-related peptides in membrane homogenates prepared from HepG2 cells and non-cancerous postmortem human liver tissue was studied. Values (mean ± SEM) represent specific binding [B/T, bound over total, in %] determined by subtraction of non-saturable binding in the presence of excess peptides (10^-5 M). Results were obtained from 5 to 7 separated experiments, each carried out in triplicate. The binding data were analyzed by computerized Scatchard analysis (LIGAND) according to Munson and Rodbard.

HepG2 cells = test: HepG2 cell proliferation (cell counting); type: cell-based; settings: for Effect on HepG2 cell proliferation: single administration at 10^-7 M, six days in culture
Procedure: HepG2 or HuH-7 cells were maintained in 75-cm^2 flasks at 37° C. under a humidified atmosphere of 5% CO2 in modified Minimum Essential Medium (Gibco-BRL) supplemented with 10% fetal bovine serum, 200mM 1-Glutamine (1%), Penicillin (1000 IU/ml), streptomycin (100 μg/ml) and sodium bicarbonate (0.15%). Cells grown to confluence were harvested following mild trypsinization and wash (twice by slow centrifugation; 400 g for 10 minutes) in normal culture medium.
Approximately 50,000 cells in 1.0 ml culture media were plated in 24 deep well plates (Flacon). This time was considered day -1. Cells were allowed to grow for one day. The growing cells were then treated with various hormones (at day 0) prepared aseptically in culture media immediately prior to addition. The final volume was maintained at 1 ml. The plates were then incubated at 37° C. for a period of 4 to 6 days, as described above.
Cells in each well were harvested by removal of culture media and incubation with 0.5 ml 0.25% trypsin and 1.75 mM EDTA for 30 minutes at 37° C. Cells were then transferred into 1.5 ml microfuge tubes and centrifuged at 100g for 10 minutes. The supernatant was removed and the pellet was resuspended in a final volume of 200 μl of culture media containing 10% trypan blue.
Cells were then counted using a hemocytometer. The average cell mortality was less than 5.0% and was not different among different treatment groups. Each value represents the mean and standard error of several experiments (n>3), each carried out in quadruplicate incubations at each time point and hormone concentration.
as §6
The effect of GnRH-related peptides on the proliferation of the human hepatoma derived cell line HepG2 was studied. Values (mean ± SEM) represent the percent change with respect to initial cell number at day 0 over a period of six days in culture.
The dose response curves were analyzed by a computerized, four parameter curve fitting program (ALLFIT) as described. The result of time-related response on cell proliferation was analyzed using a two-way ANOVA with multiple comparison means of using computerized statistical package (SYSTAT).

[3] = test system: GnRH binding sites (normal human liver); test: GnRH in vitro binding to non-cancerous postmortem human liver membrane preparation; settings: for Displacement / competitive inhibition of labeled [D-Lys6]-GnRH binding to non-cancerous human liver membrane preparation: unlabeled non-GnRH peptides, FIG. 2D; for Kd: 95% confidence interval in parentheses, read-out: Receptor Binding Activity (Kd, nM) Normal Human Liver
Procedure: as §1, §2, §3, §4, §5, §7

[4] = target: T1, normal pituitary cell GnRH receptors (Rattus norvegicus, UniProt P30969); test: GnRH binding, normal rat pituitary; settings: 95% confidence interval in parentheses, read-out: Receptor Binding Activity (Kd, nM) Normal Rat
T1 construct: normal pituitary cell GnRH receptors; from tissue; host or cells: normal rat pituitary
T1 sequence (P30969 1-327): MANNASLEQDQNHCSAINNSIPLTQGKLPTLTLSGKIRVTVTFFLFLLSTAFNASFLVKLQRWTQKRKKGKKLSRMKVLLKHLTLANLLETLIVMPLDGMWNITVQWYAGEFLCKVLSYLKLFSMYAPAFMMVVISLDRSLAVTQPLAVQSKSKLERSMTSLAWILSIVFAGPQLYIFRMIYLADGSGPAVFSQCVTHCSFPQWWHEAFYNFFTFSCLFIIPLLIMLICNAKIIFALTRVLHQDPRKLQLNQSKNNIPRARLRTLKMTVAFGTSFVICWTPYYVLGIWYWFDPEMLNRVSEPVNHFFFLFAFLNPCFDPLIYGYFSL
Procedure: as §5
Data analysis was performed as described.

mammalian pituitary = settings: reference [11]; cited from earlier work
[5] = Labeled ligand 125I-[D-Lys6]-GnRH
[6] = Labeled ligand 125I-[D-Lys6]-GnRH, 4° C.
[7] = Labeled ligand 125I-[D-Arg6]-sGnRH-A

Kd [1, 5]	Kd [2, 6]	Displacement / competitive inhibition of labeled [D-Lys6]-GnRH binding to non-cancerous human liver membrane preparation [3]	Kd [4, 5]	Molecule	Effect on HepG2 cell proliferation (HepG2 cells)	Displacement / competitive inhibition of labeled [D-Lys6]-GnRH binding to HepG2 membrane preparation [2]	Suppression of HepG2 growth ED50 (HepG2 cells)	further results
384 nM	9.17 nM			CC(C)C[C@H](NC(=O)CNC(=O)[C@H](Cc1ccc(O)cc1)NC(=O)[C@H](CO)NC(=O)[C@H](Cc1c[nH]c2ccccc12)NC(=O)[C@H](Cc1c[nH]cn1)NC(=O)[C@@H]1CCC(=O)N1)C(=O)N[C@@H](CCCNC(=N)N)C(=O)N1CCC[C@H]1C(=O)NCC(N)=O [GnRH, reference compound]	suppressed			
		did not displace		NC(=O)[C@@H]1CCCN1C(=O)[C@H](Cc1cnc[nH]1)NC(=O)[C@@H]1CCC(=O)N1 [TRH, Thyrotropin releasing hormone]		did not show competitive inhibition		Displacement / competitive inhibition of labeled [D-Lys6]-GnRH binding to HepG2 membrane preparation ([2]; listed as Thyrotropin releasing hormone (TRH)): did not displace
				CCNC(=O)[C@@H]1CCCN1C(=O)[C@H](CC(C)C)NC(=O)[C@H](Cc1c[nH]c2ccccc12)NC(=O)[C@@H](CCCNC(=N)N)NC(=O)[C@H](Cc1ccc(O)cc1)NC(=O)[C@H](CO)NC(=O)[C@H](Cc1c[nH]c2ccccc12)NC(=O)[C@H](Cc1c[nH]cn1)NC(=O)[C@@H]1CCC(=O)N1 [[D-Arg^6]-sGnRH-A, pGlu-His-Trp-Ser-Tyr-DArg-Trp-Leu-Pro-N-ethylamide] ([pGlu]HWSY[dR]WLP-NHEt)				Kd [1, 7]: 833 nM; Kd [3, 7]: 3850 nM; Kd [4, 7]: 0.334 nM; Kd [2, 7]: 7.09 nM
8330 nM	17.9 nM		140 nM	CC(C)C[C@H](NC(=O)CNC(=O)[C@H](Cc1c[nH]cn1)NC(=O)[C@H](CO)NC(=O)[C@H](Cc1c[nH]c2ccccc12)NC(=O)[C@H](Cc1c[nH]cn1)NC(=O)[C@@H]1CCC(=O)N1)C(=O)N[C@@H](CC(N)=O)C(=O)N1CCC[C@H]1C(=O)NCC(N)=O [cfGnRH] ([pGlu]HWSHGLNPG-NH2)	suppressed		2.29 nM	
8330 nM	66.6 nM		2 nM	CC(C)C[C@H](NC(=O)[C@H](CO)NC(=O)[C@H](Cc1ccc(O)cc1)NC(=O)[C@H](Cc1c[nH]cn1)NC(=O)[C@@H]1CCC(=O)N1)C(=O)N[C@@H](CCC(=O)O)C(=O)N[C@@H](Cc1c[nH]c2ccccc12)C(=O)N[C@@H](CCCCN)C(=O)N1CCC[C@H]1C(=O)NCC(N)=O [lGnRH] ([pGlu]HYSLEWKPG-NH2)	suppressed		1.5 nM	Kd [3, 5]: 6660 nM; Gonadotropin release activity in rat and sheep pituitary (mammalian pituitary): little; Potency in releasing gonadotropin from mammalian pituitary compared to mammalian based GnRH analogs (mammalian pituitary): significantly lower potency
1560 nM			179 nM	CC(C)C[C@H](NC(=O)[C@H](Cc1c[nH]c2ccccc12)NC(=O)CNC(=O)[C@H](Cc1ccc(O)cc1)NC(=O)[C@H](CO)NC(=O)[C@H](Cc1c[nH]c2ccccc12)NC(=O)[C@H](Cc1c[nH]cn1)NC(=O)[C@@H]1CCC(=O)N1)C(=O)N1CCC[C@H]1C(=O)NCC(N)=O [sGnRH] ([pGlu]HWSYGWLPG-NH2)	suppressed		7.55 nM	Kd [3, 5]: 7140 nM; Potency in releasing gonadotropin from mammalian pituitary compared to mammalian based GnRH analogs (mammalian pituitary): significantly lower potency
		did not displace		α-melanocyte stimulating hormone [α-MSH, reference compound]	lack of effect; also recorded: did not	did not displace; also recorded: did not show competitive inhibition		

Molecule	Kd [1, 5]	Kd [2, 6]	Displacement / competitive inhibition of labeled [D-Lys6]-GnRH binding to non-cancerous human liver membrane preparation [3]	Kd [4, 5]	Effect on HepG2 cell proliferation (HepG2 cells)	Displacement / competitive inhibition of labeled [D-Lys6]-GnRH binding to HepG2 membrane preparation [2]	Suppression of HepG2 growth ED50 (HepG2 cells)	further results
Met Enkephalin [Met-Enkephalin]			did not displace			did not show competitive inhibition		Displacement / competitive inhibition of labeled [D-Lys6]-GnRH binding to HepG2 membrane preparation ([2]; listed as Met Enkephalin): did not displace

Source: patent US5760000A (University Technologies International,Inc., priority 1994, dated 1998)
